Experimental data from paper PMC6331910, “The Curcumin Analogue 1,5-Bis(2-hydroxyphenyl)-1,4-pentadiene-3-one Induces Apoptosis and Downregulates E6 and E7 Oncogene Expression in HPV16 and HPV18-Infected Cervical Cancer Cells” (Molecules, 2015).

Assays:
[1] = test system: LNCaP prostate cancer cells; design: method as in PMID 21796654; conditions: cited from earlier work
[2] = test system: C4-2 prostate cancer cells; design: method as in PMID 21796654; conditions: cited from earlier work
HPV16E7 = test: Quantitative real-time PCR of viral oncogene mRNA in CaSki cells; assay type: cell-based, HPV16; conditions: 24 h
Protocol: (§1) RNA extraction was performed using the Qiagen RNeasy® Mini Kit (Qiagen, Valencia, CA, USA). According to the manufacturer’s instructions, treated HeLa and CaSki cells were lysed using Buffer RLT (supplemented with β-mercaptoethanol) and centrifuged for 3 min at maximum speed. 70% ethanol was added to the lysate and placed in an RNeasy Mini spin column and spun at ≥8000× g for 15 s. Flow-through was discarded and the pellet was subjected to a series of wash steps using buffers RW1 and RPE and subsequent RNA elution. On-column RNase-Free DNase (Qiagen) treatment was incorporated into the extraction protocol to eliminate […]. Concentration and purity of extracted RNA was measured spectrophotometrically using NanoDrop 1000 (Thermo Fisher Scientific, Wilmington, DE, USA). Two μg of total RNA per 20 μL reaction was used for complementary DNA (cDNA) synthesis using a High Capacity RNA-to-cDNA kit (Applied Biosystems, Life Technologies, Foster City, CA, USA). Appropriate volumes of RNA sample were added to 10 μL 2XRT Buffer and 1 μL 20X RT Enzyme Mix and the total volume was adjusted to 20 μL using nuclease-free water. Reverse transcription was performed on the samples using the following conditions; 37 °C for 60 min and 95 °C for 5 min. The sequences used to design the primers and TaqMan® probes were obtained from previous publications, synthesized by Applied Biosystems and optimized to amplify the HPV16 and HPV18 E6 and E7 regions (sequences listed in Table 2) using the StepOnePlus™ Real-Time PCR system (Applied Biosystems). The optimized concentrations of the primers and probes used were […] respectively. Human VIC®-MGB ACTB (β-actin) was used as an endogenous control for internal normalisation and relative gene expression quantification. Each reaction was run in duplicates and used to calculate relative gene expression using the 2^−∆∆CT method. Expression is reported as fold change in the level of mRNA of treated cells relative to untreated cells, normalised to β-actin expression.

HPV16E6 = test: as above; assay type: cell-based, HPV16; conditions: 24 h
Protocol: as §1

[3] = test system: caspase-3 activity in HeLa cells; test: Caspase-3 colorimetric assay (relative caspase-3 activity); assay type: cell-based, human; conditions: all time points and doses (3, 6, 9 μM)
Protocol: (§2) HeLa, 9 μM] at various time points. Each experiment included a set of untreated control cells (Media with DMSO alone). Caspase-3 activity was assessed using the Caspase-3 Colorimetric Assay Kit (Sigma Aldrich), following the manufacturer’s instructions. […] Following treatment, the cells were washed in PBS and suspended in a lysis buffer (50 mM HEPES pH 7.4, 5 mM CHAPS, 5 mM DTT) for 25 min at a concentration of 10^7 cells per 100 μL of buffer. Lysed cells were centrifuged at 16,000× g, 4 °C for 30 min. Lysate protein concentration was determined using the Cayman Chemical Protein Determination (Cayman Chemical Company, Ann Arbor, MI, USA) kit which is a colorimetric method for total protein quantification based on the Bradford method. In short, 100 μL of protein samples was diluted in 96-well plates and 100 μL of the assay reagent was added to the samples, incubated for 5 min and the absorbance measured at 595 nm. Protein concentrations were calculated from a regression line fit to a series of standard protein dilutions assays on the same plate as the unknown samples. […] The effect of Ac-DEVD-CHO, a caspase-3 inhibitor, on caspase-3 activity was studied simultaneously. As per the manufacturer’s instructions, 10 μL of the inhibitor Ac-DEVD-CHO (200 μM) was added to a well containing the assay buffer, followed immediately by the cell lysate and 10 μL of the substrate Ac-DEVD-pNA (2 mM). Caspase-3 activity was assessed by measuring the absorbance released by the pNA molecule at 405 nm using a Bio-Rad Benchmark Plus Microplate Spectrophotometer. Caspase-3 activity was expressed by measuring the ratio of the mean caspase-3 activity of treated cells relative to untreated cells.

[4] = test system: caspase-3 activity in CaSki cells; test: as above; assay type: cell-based, human
Protocol: as §2

HeLa = test: DNA fragmentation, Cell Death Detection ELISA (cytoplasmic nucleosomal enrichment); assay type: cell-based, human
Protocol: (§3) Each experiment included a set of untreated control cells (Media with DMSO alone). The enrichment of the cytoplasm of treated cells by mono- and oligonucleosomes are used to study whether enhanced DNA fragmentation is induced by diarylpentanoid treatment. This determination was made following the manufacturer’s instructions of the Cell Death Detection ELISA^PLUS kit (Roche Diagnostics, Mannheim, Germany). […] Following treatment, the cells were incubated in lysis buffer and centrifuged, after which the supernatant was transferred to streptavidin coated plates and shaken with the provided immunoreagent (mixture of anti-DNA-POD and anti-histone biotin) for 2 h. […] Enrichment factor, defined as the release of mono- and oligonucleosomes into the cytoplasm, was calculated using the formula below: (4) Enrichment factor =Absorbance of Test − Absorbance of Blank (substrate only)/Absorbance of Control − Absorbance of Blank (substrate only)

CaSki = test: as above; assay type: cell-based, human
Protocol: as §3, with “HeLa, 9 μM] at various time points. Each” for “Each”

In the case of `O=C(C=Cc1ccccc1O)C=Cc1ccccc1O` [MS17, 1,5-bis(2-hydroxyphenyl)-1,4-pentadiene-3-one], the “concentration causing significant cell death” value [1] is listed as over 10 µM, the “concentration causing significant cell death” value [2] is listed as “more than 2.5 μM” and the “inhibition of E7 oncogene expression” value (HPV16E7; 2 μM and 4 μM) is listed as “did not show significant inhibition”. The “decrease in HPV16E7 expression” value (HPV16E7; 6 μM, vs untreated) was 3 fold, the “inhibition of E6 oncogene expression” value (HPV16E6; 2 μM and 4 μM) was “did not show significant inhibition” and the “decrease in HPV16E6 expression” value (HPV16E6; 6 μM, vs untreated) was 3 fold. The “relative caspase-3 activity” value [3] was “no significant differences”, the “relative caspase-3 activity” value ([4]; 2 μM) was “low caspase-3 activity” and the “relative caspase-3 activity” value ([4]; 4 μM, 48 h) was “increased activity”. For the same compound, the “relative caspase-3 activity” value ([4]; 6 μM, 24 h, treated over untreated) was “threefold increase”, the “increase in nucleosome enrichment” value (HeLa; 6 μM, 24 h, vs untreated) was 2.2 fold and the “increase in enrichment factor” value (HeLa; 6 μM, 48 h, vs untreated) was “approximately two-fold”. For the same compound, the enrichment factor (HeLa; 6 and 9 μM, 72 h) was “significant reduction of enrichment factor”, the “increase in nucleosome enrichment” value (CaSki; 4 μM, 24 h, vs untreated) was 5 fold and the enrichment factor (CaSki; 48 h) was “no significant difference between doses”. For the same compound, the enrichment factor (CaSki; 72 h) was “no significant reduction”.
